pIC50: −log10 of the molar value. Where two headings read alike, the source gives them in different places.
Assays:
DU145 tumor cells = test: MTT growth inhibition of DU145 cells, 72 h; format: cell-based, human; conditions: for pIC50 / IC90: DU145, 72 h, MTT; for growth inhibitory effects on tumor cells (in words): discussion of the MTT assay, DU145
Protocol: DU145 cells were inoculated in RPM11640 medium containing 10% calf serum, incubated at 37° C., 5% CO2 in CO2 incubator, and passaged every 2-3 days. In this experiment, cells were grown in logarithmic growth phase.
In the experiment, the cells at logarithmic growth phase were formulated into suspension, and the viability by trypan blue staining was more than 98%. The suspension was divided into several groups: 1 as blank control group (cell suspension); and 2 as experimental groups (cell suspension plus drugs).
(§1) The drugs were formulated into a stock solution in DMSO, and the concentration of the stock solution was 20 mmol (used within 4 hours). In the experiment, the work solution of the drugs was diluted with RPM11640 medium containing 10% calf serum under aseptic condition, to a final concentration of 80 μM. The drug concentrations were increased by 2 times (1.25-20 μM).
(§2) The DU145 cell in logarithmic growth phase were selected, centrifuged, counted, and formulated into a cell suspension (2.5×10^4/ml) with RPM11640 medium containing 10% calf serum. The cell suspension were inoculated into 96-well plates at a density of 5000 cells/200 μl per well, incubated for 24 hours at 37° C., 5% CO2. According to the above concentration of the drug, the cells were inoculated to 6 groups (including one control group), with 8 wells per group. After incubating for 72 hours, the viability of cells was measured by MTT assay. The absorbance value (A) was measured with detection wavelength at 540 nm, reference wavelength at 630 nm. The inhibitory rate (I) was calculated by the following equation, where T was the absorbance value of the experimental groups, and C was the absorbance value of the blank control group: I=(1−T/C)×100%
(§3) The regression equation was calculated by the concentration-inhibitory rate curve, to obtain 50% and 90% inhibition concentration (IC50 and IC90, μM).

[1] = Dissolution of solid dispersion preparations; format: physicochemical; conditions: 45 minute, 100 ml of 1% sodium dodecyl sulfate solution, 37±0.5° C., 100 r/min
Protocol: Instruments: RCZ-5A capacity medicament dissolve and infiltrate apparatus is made by Tianjin University Precision Instruments Factory. UV1900 UV-Vis spectrophotometer is made by Shanghai Yayan Electronic Science And Technology Co., Ltd.
Dissolution determination methods: According to the third method of XC dissolution assay stated in the appendix of Chinese Pharmacopeia (Edition 2005), the rotation speed was 100 r/min, the temperature was 37±0.5° C., and the dissolution medium was 100 ml of 1% sodium dodecyl sulfate solution degassed ultrasonically. A specimen was withdrawn at 45 minute and immediately filtered through a 0.8 μm water membrane. The filtrate was quantitatively diluted. The absorbance was measured by UV1900, and the dissolution percentage was calculated.

[2] = Safety profile (stated in the discussion, no method described); conditions: discussion of Example 2; no data shown
[3] = Solubility assay in solvents; format: physicochemical; conditions: for solubility in Acetone / solubility in deionized water / solubility in ethanol / solubility in methanol / solubility in petroleum ether (boiling range: 60~90° C.) / solubility in trichlormethane: 5 mg in 2 ml solvent, room temperature (20° C.); for change of lipid solubility / change of water solubility: 129 relative to 91, 91 relative to indirubin
Protocol: Testing Methods: 5 mg of the compound no. 129 and 91 were respectively added into 2 ml solvent at room temperature (20° C.), and stirred to dissolve.

[4] = tested on: human hepatoma cell line 7701 QGY; test: MTT growth inhibition of 7701 QGY cells; format: cell-based; conditions: read-out: IC50 (μM) Tumor cells 7701 QGY
Protocol: as §1, §2, §3
(§4) 1. Tumor Cells: human hepatoma cell lines 7701 QGY and HepG-2, human lung adenocarcinoma cell line A549, human chronic myelocytic leukemia cell line K562, human leukemia cell line CEM and mouse melanoma cell line K111.
(§5) 2. Using the methods described in example 2, the biological activity of a portion of newly synthesized 5- or 7-azaindirubin derivatives and 5- or 7-azaisoindigo derivatives (20 compounds) for inhibiting various tumor cells growth were determined.

[5] = tested on: human hepatoma cell line HepG-2; test: MTT growth inhibition of HepG-2 cells; format: cell-based; conditions: HepG-2, MTT, read-out: IC50 (μM) Tumor cells HepG-2
Protocol: as §1, §2, §3, §4, §5

[6] = tested on: human lung adenocarcinoma cell line A549; test: MTT growth inhibition of A549 cells; format: cell-based; conditions: read-out: IC50 (μM) Tumor cells A549
Protocol: as §1, §2, §3, §4, §5

[7] = tested on: human chronic myelocytic leukemia cell line K562; test: MTT growth inhibition of K562 cells; format: cell-based; conditions: read-out: IC50 (μM) Tumor cells K562
Protocol: as §1, §2, §3, §4, §5

[8] = tested on: human leukemia cell line CEM; test: MTT growth inhibition of CEM cells; format: cell-based; conditions: read-out: IC50 (μM) Tumor cells CEM
Protocol: as §1, §2, §3, §4, §5

[9] = tested on: mouse melanoma cell line K111; test: MTT growth inhibition of K111 cells; format: cell-based; conditions: Klll, read-out: IC50 (μM) Tumor cells Klll
Protocol: as §1, §2, §3, §4, §5

phospho-CDK2^Thr160 = test: Western blot of phospho-CDK2 in DU145 cells; format: cell-based, human; conditions: DU145, treated for 24 hours, FIG. 3
Source text: (§6) Reagents: The tested compounds were the same as example 2. Unless otherwise indicated, other chemical reagents were purchased from Sigma Chemical Company (USA). Polyacrylamide gel used in protein electrophoresis, SDS, electrophoresis buffer, transfer buffer protein, nitrocellulose membrane were purchased from American Bio-Rad Life Science Company. Western blotting detection kits and films were purchased from American GE Company. Phospho-CDK2^Thr160 antibody, endogenous cyclin-dependent inhibitor p27 antibody, CyclinD1 and β-Actin antibody were purchased from American Cell Signaling Inc., DAKO and Santa Cruz Biochemical Technology Company.
(§7) Tumor cells and methods for cell culture were the same as example 2.
(§8) Phospho-Cdc2, p27, and Cyclin D1 were Detected by Western Blot: The human prostate cancer cell lines DU145 at logarithmic growth phase were treated with compounds No. 124 and No. 126 (concentration is shown in FIG. 3) for 24 hours. The cells were harvested and washed. Total cellular proteins were extracted and quantified as described previously^[14]. 50 μg of protein was separated on a SDS-PAGE, electro-transferred to nitrocellulose filters. Western blot were performed using specific antibodies against Phospho-CDK2, endogenous cyclin-dependent inhibitor p27 and CyclinD1, with β-Actin antibody as an internal standard. The result was recorded by ECL films.

Cyclin D1 = test: Western blot of Cyclin D1 in DU145 cells; format: cell-based, human; conditions: DU145, treated for 24 hours, FIG. 3
Source text: as §6, §7, §8

[10] = tested on: endogenous cyclin-dependent inhibitor p27; test: Western blot of p27 in DU145 cells; format: cell-based, human; conditions: DU145, treated for 24 hours, FIG. 3
Source text: as §6, §7, §8

[11] = Homo sapiens, DU-145, 72 h, Table 5
[12] = Homo sapiens, DU-145, 72 h, Table 6

| pIC50 (DU145 tumor cells; Table 6) | IC90 (DU145 tumor cells; Table 6) | IC50 [4] | IC50 [5] | IC50 [6] | IC50 [7] | IC50 [8] | IC50 [9] | Compound | also measured |
| --- | --- | --- | --- | --- | --- | --- | --- | --- | --- |
| 5.16 | 16 µM | 11.1 µM | 20.5 µM | 12.5 µM | 8.2 µM | 5.6 µM | 6.3 µM | CN1C(=O)C(=C2Nc3ccc(Cl)cc3C2=NO)c2cccnc21 [Compound 116] | growth inhibitory effects on tumor cells (in words) (DU145 tumor cells): relatively significant growth inhibitory effects |
| 5.40 | 12 µM | 13.5 µM | 8.1 µM | 8.5 µM | 7.9 µM | 9 µM | 8.1 µM | CCN1C(=O)C(=C2Nc3ccc(Br)cc3C2=NO)c2cccnc21 [Compound 119] | – |
| 5.15 | 19 µM | 11.2 µM | 16.3 µM | 9.6 µM | 5.1 µM | 8.1 µM | 14.2 µM | O=C1C(=C2Nc3ccc(Cl)cc3C2=NO)c2cccnc2N1Cc1ccccc1 [Compound 126] | level of CDK2 activity (phosphorylation) (phospho-CDK2^Thr160): decreased in a dose-dependent manner; protein expression of cyclin D1 (Cyclin D1): significantly decreased; expression of endogenous cyclin-dependent inhibitor p27 [10]: significantly increased |
| 5.57 | 7.1 µM | 7.6 µM | 12.6 µM | 10 µM | 7.7 µM | 10.5 µM | 3.6 µM | CN1C(=O)C(=C2Nc3ccccc3C2=NO)c2cccnc21 [Compound 128] | – |
| 4.37 | > 100 µM | 36 µM | 29.3 µM | 12.4 µM | 19 µM | 9.8 µM | 12 µM | CN1C(=O)C(=C2C(=O)Nc3ccc(F)cc32)c2cccnc21 [Compound 154] | – |
| 5.04 | 19 µM | 33.1 µM | 29 µM | 23.3 µM | 18.6 µM | 12.7 µM | 9.1 µM | CC(C)N1C(=O)C(=C2C(=O)Nc3ccccc32)c2cccnc21 [Compound 164, 1-isopropyl-7-azaisoindigo] | – |

The next lines start with the compound.

| Compound | pIC50 (DU145 tumor cells; Table 6) | IC90 (DU145 tumor cells; Table 6) | IC50 [4] | IC50 [5] | IC50 [6] | IC50 [7] | IC50 [8] | IC50 [9] | also measured |
| --- | --- | --- | --- | --- | --- | --- | --- | --- | --- |
| O=C1C(=C2C(=O)N(Cc3ccccc3)c3ccncc32)Nc2ccc(Br)cc21 [Compound 18] | – | – | – | – | – | – | – | – | pIC50 (DU145 tumor cells; Table 5): 5.18; IC90 (DU145 tumor cells; Table 5): 23.5 µM; Dissolution percentages (%) [1]: 4% |
| CC(C)N1C(=O)C(=C2Nc3ccc(Br)cc3C2=NO)c2cnccc21 [Compound 30] | – | – | – | – | – | – | – | – | pIC50 (DU145 tumor cells; Table 5): 5.48; IC90 (DU145 tumor cells; Table 5): 7 µM; growth inhibitory effects on tumor cells (in words) (DU145 tumor cells): relatively significant growth inhibitory effects; safety profile [2]: good safety profile |
| CCN1C(=O)/C(=C2\Nc3ccccc3\C2=N/O)c2ccccc21 [Compound 91, 1-ethyl-indirubin-3′-oxime, reference compound] | – | – | – | – | – | – | – | – | pIC50 (DU145 tumor cells; [11]): 5.38; IC90 (DU145 tumor cells; [11]): 21.8 µM; pIC50 (DU145 tumor cells; [12]): 5.39; IC90 (DU145 tumor cells; [12]): 22 µM; solubility in Acetone [3]: easily soluble; solubility in deionized water [3]: insoluble; solubility in ethanol [3]: dissoluble; solubility in methanol [3]: slightly soluble; solubility in petroleum ether (boiling range: 60~90° C.) [3]: slightly soluble; solubility in trichlormethane [3]: easily soluble; change of lipid solubility [3]: increased; change of water solubility [3]: decreased |
| CC(C)N1C(=O)C(=C2Nc3ccc(Br)cc3C2=NO)c2cccnc21 [Compound 121] | 5.51 | 29 µM | 14.9 µM | 16 µM | 18.1 µM | 11.5 µM | 11.3 µM | 6 µM | growth inhibitory effects on tumor cells (in words) (DU145 tumor cells): relatively significant growth inhibitory effects; safety profile [2]: good safety profile |
| CCCCN1C(=O)C(=C2Nc3ccc(Cl)cc3C2=NO)c2cccnc21 [Compound 124] | 5.74 | 12 µM | – | – | – | – | – | – | growth inhibitory effects on tumor cells (in words) (DU145 tumor cells): relatively significant growth inhibitory effects; level of CDK2 activity (phosphorylation) (phospho-CDK2^Thr160): decreased in a dose-dependent manner; protein expression of cyclin D1 (Cyclin D1): significantly decreased; expression of endogenous cyclin-dependent inhibitor p27 [10]: significantly increased; safety profile [2]: good safety profile |
| CCN1C(=O)/C(=C2\Nc3ccccc3\C2=N/O)c2cccnc21 [Compound 129] | – | – | – | – | – | – | – | – | pIC50 (DU145 tumor cells; [12]): 5.42; IC90 (DU145 tumor cells; [12]): 12 µM; IC50 ([4]; Homo sapiens): 7.4 µM; IC50 ([5]; Homo sapiens, HepG2): 13 µM; IC50 ([6]; Homo sapiens): 14.1 µM; IC50 ([7]; Homo sapiens): 3.4 µM; IC50 ([8]; Homo sapiens, CCRF-CEM): 7 µM; IC50 ([9]; Mus musculus): 4.2 µM; solubility in Acetone [3]: slightly soluble; solubility in deionized water [3]: slightly soluble; solubility in ethanol [3]: slightly soluble; solubility in methanol [3]: soluble; solubility in petroleum ether (boiling range: 60~90° C.) [3]: insoluble; solubility in trichlormethane [3]: slightly soluble; change of lipid solubility [3]: decreased; change of water solubility [3]: increased |
| CC(=O)OCC1OC(N2C(=O)C(=C3C(=O)Nc4ccccc43)c3cc(C)cnc32)C(OC(C)=O)C1OC(C)=O (centres unmarked) [Compound 158] | 4.98 | 49 µM | 44 µM | 18 µM | 22.3 µM | 5.8 µM | 12 µM | 8.3 µM | – |
| CCN1C(=O)C(=C2C(=O)N(CC)c3ncccc32)c2cc(Br)ccc21 [Compound 160] | 4.85 | 61 µM | 25.4 µM | 31.1 µM | 29.1 µM | 10.2 µM | 10.8 µM | 15 µM | – |
| CCCCN1C(=O)C(=C2C(=O)Nc3ccc(Br)cc32)c2cccnc21 [Compound 170] | 4.82 | 90 µM | 28 µM | 25 µM | 19.5 µM | 10.3 µM | 8.5 µM | 18.5 µM | – |

Source: patent US8642765B2, “Azaindole-indole coupled derivatives, preparation methods and uses thereof” (priority 2007, dated 2014)
